This is an account of results in patent publication US20020049223A1, “Quinoline and naphthyridine carboxylic acid antibacterials” (priority 1999, published 2002).

The test system of data set [1] is Enterococcus faecalis PIU 1967. Kind of data set: Assay A: in vitro antibacterial activity, agar dilution MIC. As to conditions: Table 1, Assay A, BHI agar, 35-37° C., about 20 to 24 hours; code B = Enterococcus faecalis PIU 1967; unit assumed. The data set is classed as cell-based. As to the method: (§1) Assay A. Determination of Biological Activity In Vitro Assay of Antibacterial Activity
(§2) Representative compounds of the invention were assayed in vitro for antibacterial activity. Twelve petri dishes containing successive aqueous dilutions of the test compound mixed with sterilized Brain Heart Infusion (BHI) agar (Difco 0418-01-5) (10 mL) were prepared. Each plate was inoculated with 1:100 (or 1:10 for slow-growing strains, such as Micrococcus and Streptococcus) dilutions of up to 32 different microorganisms using a Steers replicator block. The inoculated plates were incubated at 35-37° C. for about 20 to about 24 hours. In addition, a control plate with BHI agar and no test compound was prepared and incubated at the beginning and end of each test.
(§3) An additional plate containing a compound having known susceptibility patterns for the organisms being tested and belonging to the same antibiotic class as the test compound was also prepared and incubated as a further control and to provide test-to-test comparability. Ciprofloxacin was used for this purpose.
(§4) After incubation, each plate was visually inspected. The minimum inhibitory concentration (MIC) was defined as the lowest concentration of drug yielding no growth, a slight haze, or sparsely isolated colonies on the inoculum spot as compared to the growth control.

Data set [2] relates to Escherichia coli JUHL. Described as above. Format: cell-based. As to conditions: Table 1, Assay A, BHI agar, 35-37° C., about 20 to 24 hours; code D = Escherichia coli JUHL; unit assumed. As to the method:
as §1, §2, §3, §4

The subject of data set [3] is Haemophilus influenzae DILL AMP R. The description is as above. Format: cell-based. As to conditions: Table 1, Assay A, BHI agar, 35-37° C., about 20 to 24 hours; code E = Haemophilus influenzae DILL AMP R; unit assumed. As to the method:
as §1, §2, §3, §4

The subject of data set [4] is Moraxella catarrahalis 2604. The description is as above. The data set is classed as cell-based. As to conditions: Table 1, Assay A, BHI agar, 35-37° C., about 20 to 24 hours; code C = Moraxella catarrahalis 2604; unit assumed. On the procedure: as §1, §2, §3, §4
The test system of data set [5] is Staphylococcus aureus ATCC 6538P. Described as above. Format: cell-based. The following applies: Table 1, Assay A, BHI agar, 35-37° C., about 20 to 24 hours; code A = Staphylococcus aureus ATCC 6538P; unit assumed. On the procedure: as §1, §2, §3, §4
In data set [6] the test system is Streptococcus pneumoniae ATCC 6303. The data set is described as above. Format: cell-based. The following applies: Table 1, Assay A, BHI agar, 35-37° C., about 20 to 24 hours; code F = Streptococcus pneumoniae ATCC 6303; unit assumed. On the procedure:
as §1, §2, §3, §4

Structures are written as SMILES.

With `COc1c(-c2cc3c(s2)CCNC3)ccc2c(=O)c(C(=O)O)cn(C3CC3)c12.Cl` [Example 2, 1-cyclopropyl-8-methoxy-4-oxo-7-(4,5,6,7-tetrahydrothieno[3,2-c]pyridin-2-yl)-1,4-dihydro-3-quinolinecarboxylic acid hydrochloride], the melting point is 180 °C (dec.). The compound further yielded an Antibacterial Activity (MIC's), B in data set [1] of 0.2 µg/mL. The compound further yielded an Antibacterial Activity (MIC's), D in data set [2] of 0.2 µg/mL. Also, the Antibacterial Activity (MIC's), E in data set [3] came to 0.12 µg/mL. Moreover, the Antibacterial Activity (MIC's), C in data set [4] was determined as 0.2 µg/mL. In data set [5], the Antibacterial Activity (MIC's), A came to 0.05 µg/mL. Besides, in data set [6], the Antibacterial Activity (MIC's), F was 0.5 µg/mL.

Regarding `COc1c(-c2cc3c(s2)CNCC3)ccc2c(=O)c(C(=O)O)cn(C3CC3)c12.Cl` [Example 7, 1-cyclopropyl-8-methoxy-4-oxo-7-(4,5,6,7-tetrahydrothieno(2,3-c)pyridin-2-yl)-1,4-dihydro-3-quinolinecarboxylic acid hydrochloride], the melting point is 188 to 189 °C. The compound also registered an Antibacterial Activity (MIC's), B in data set [1] of 0.39 µg/mL. For the same compound, the Antibacterial Activity (MIC's), D in data set [2] was 0.2 µg/mL. Besides, the Antibacterial Activity (MIC's), E in data set [3] was determined as 0.06 µg/mL. In data set [4], this compound showed an Antibacterial Activity (MIC's), C of 0.2 µg/mL. The compound also showed an Antibacterial Activity (MIC's), A in data set [5] of 0.2 µg/mL. The same compound registered an Antibacterial Activity (MIC's), F in data set [6] of 0.25 µg/mL.

In turn, `Cl.O=C(O)c1cn(C2CC2)c2nc(-c3cc4c(s3)CNCC4)c(F)cc2c1=O` [Example 9, 1-cyclopropyl-6-fluoro-4-oxo-7-(4,5,6,7-tetrahydrothieno(2,3-c)pyridin-2-yl)-1,4-dihydro[1,8]naphthyridine-3-carboxylic acid hydrochloride] came in with a melting point of 290 to 291 °C. This compound came in with an Antibacterial Activity (MIC's), B in data set [1] of 0.2 µg/mL. In data set [2], this compound came in with an Antibacterial Activity (MIC's), D of 0.1 µg/mL. In data set [3], the Antibacterial Activity (MIC's), E was 0.06 µg/mL. The Antibacterial Activity (MIC's), C in data set [4] amounted to 0.1 µg/mL. Moreover, in data set [5], the Antibacterial Activity (MIC's), A came to 0.1 µg/mL. The Antibacterial Activity (MIC's), F in data set [6] was 0.125 µg/mL.

With `Br.CC1NCCc2sc(-c3ccc4c(=O)c(C(=O)O)cn(C5CC5)c4c3OC(F)F)cc21` (stereo not shown) [Example 20, 1-cyclopropyl-8-(difluoromethoxy)-7-(4-methyl-4,5,6,7-tetrahydrothieno[3,2-c]pyridin-2-yl)-4-oxo-1,4-dihydro-3-quinolinecarboxylic acid hydrobromide], the melting point is 176 to 180 °C (dec.). In data set [1], this compound came in with an Antibacterial Activity (MIC's), B of 0.78 µg/mL. This compound also had an Antibacterial Activity (MIC's), D in data set [2] of 0.78 µg/mL. The compound further displayed an Antibacterial Activity (MIC's), E in data set [3] of 0.25 µg/mL. In data set [4], this compound yielded an Antibacterial Activity (MIC's), C of 0.78 µg/mL. In data set [5], this compound returned an Antibacterial Activity (MIC's), A of 0.2 µg/mL. The Antibacterial Activity (MIC's), F in data set [6] is 1 µg/mL.

`CC1NCCc2cc(-c3nc4c(cc3F)c(=O)c(C(=O)O)cn4C3CC3)sc21.Cl` (stereo not shown) [Example 22, 1-cyclopropyl-6-fluoro-7-(7-methyl-4,5,6,7-tetrahydrothieno(2,3-c)pyridin-2-yl)-4-oxo-1,4-dihydro[1,8]naphthyridine-3-carboxylic acid hydrochloride] came in with a melting point of 293 to 294 °C. The Antibacterial Activity (MIC's), B in data set [1] turned out to be 0.78 µg/mL. Also, the Antibacterial Activity (MIC's), D in data set [2] was 0.78 µg/mL. This compound also showed an Antibacterial Activity (MIC's), E in data set [3] of 0.25 µg/mL. In addition, in data set [4], the Antibacterial Activity (MIC's), C was 0.39 µg/mL. The compound also showed an Antibacterial Activity (MIC's), A in data set [5] of 0.2 µg/mL. This compound came in with an Antibacterial Activity (MIC's), F in data set [6] of 2 µg/mL.

`COc1c(-c2cc3c(s2)CCCC3N)ccc2c(=O)c(C(=O)O)cn(C3CC3)c12.Cl` (stereo not shown) [Example 40, 7-(4-amino-4,5,6,7-tetrahydro-1-benzothien-2-yl)-1-cyclopropyl-8-methoxy-4-oxo-1,4-dihydro-3-quinolinecarboxylic acid hydrochloride] displayed a melting point of 219 to 222 °C. This compound also registered an Antibacterial Activity (MIC's), B in data set [1] of 0.1 µg/mL. Further, the Antibacterial Activity (MIC's), D in data set [2] came out at 0.2 µg/mL. In addition, the Antibacterial Activity (MIC's), E in data set [3] was found to be 0.06 µg/mL. The Antibacterial Activity (MIC's), C in data set [4] came out at 0.1 µg/mL. In data set [5], this compound showed an Antibacterial Activity (MIC's), A of 0.02 µg/mL. Also, in data set [6], the Antibacterial Activity (MIC's), F was 0.125 µg/mL.

In the case of `COc1c(-c2cc3c(s2)CCC(O)C3)ccc2c(=O)c(C(=O)O)cn(C3CC3)c12` (stereo not shown) [Example 42, 1-cyclopropyl-7-(5-hydroxy-4,5,6,7-tetrahydro-1-benzothien-2-yl)-8-methoxy-4-oxo-1,4-dihydro-3-quinolinecarboxylic acid], the melting point fell in the range of 232 to 233 °C. Also, in data set [1], the Antibacterial Activity (MIC's), B was determined as 0.39 µg/mL. In data set [2], this compound yielded an Antibacterial Activity (MIC's), D of 0.78 µg/mL. The compound also had an Antibacterial Activity (MIC's), E in data set [3] of 0.125 µg/mL. The same compound gave an Antibacterial Activity (MIC's), C in data set [4] of 0.02 µg/mL. In addition, in data set [5], the Antibacterial Activity (MIC's), A stood at 0.02 µg/mL. The same compound gave an Antibacterial Activity (MIC's), F in data set [6] of 0.25 µg/mL.

On to `O=C1CCCc2sc(-c3nc4c(cc3F)c(=O)c(C(=O)O)cn4C3CC3)cc21` [Example 48, 1-cyclopropyl-6-fluoro-4-oxo-7-(4-oxo-4,5,6,7-tetrahydro-1-benzothien-2-yl)-1,4-dihydro[1,8]naphthyridine-3-carboxylic acid], for which, in data set [1], the Antibacterial Activity (MIC's), B turned out to be 0.2 µg/mL. For the same compound, in data set [2], the Antibacterial Activity (MIC's), D came to 0.78 µg/mL. The compound also had an Antibacterial Activity (MIC's), E in data set [3] of 0.06 µg/mL. In data set [4], the Antibacterial Activity (MIC's), C is 0.02 µg/mL. In data set [5], this compound yielded an Antibacterial Activity (MIC's), A of 0.02 µg/mL. The compound also gave an Antibacterial Activity (MIC's), F in data set [6] of 0.25 µg/mL.

In data set [1], `O=C(O)c1cn(C2CC2)c2nc(-c3cc4c(s3)CCC/C4=N\O)c(F)cc2c1=O` [Example 49, 1-cyclopropyl-6-fluoro-7-((4E)-4-(hydroxyimino)-4,5,6,7-tetrahydro-1-benzothien-2-yl)-4-oxo-1,4-dihydro[1,8]naphthyridine-3-carboxylic acid] showed an Antibacterial Activity (MIC's), B of 0.39 µg/mL. In addition, the Antibacterial Activity (MIC's), D in data set [2] came to 0.78 µg/mL. This compound had an Antibacterial Activity (MIC's), E in data set [3] of 0.06 µg/mL. Besides, the Antibacterial Activity (MIC's), C in data set [4] was found to be 0.05 µg/mL. In addition, the Antibacterial Activity (MIC's), A in data set [5] is 0.05 µg/mL. In data set [6], this compound showed an Antibacterial Activity (MIC's), F of 0.25 µg/mL.

The compound `CC1NCCc2cc(-c3ccc4c(=O)c(C(=O)O)cn(C5CC5)c4c3OC(F)F)sc21.Cl` (stereo not shown) [Example 52, 1-cyclopropyl-8-diflouromethoxy-7-(7-methyl-4,5,6,7-tetrahydrotheino(2,3-c)pyrindin-2-yl)-4-oxo-1,4-dihydro-3-quinolinecarboxylic acid hydrochloride] gave an Antibacterial Activity (MIC's), B in data set [1] of 0.78 µg/mL. Further, the Antibacterial Activity (MIC's), D in data set [2] came out at 0.39 µg/mL. Moreover, the Antibacterial Activity (MIC's), E in data set [3] worked out at 0.25 µg/mL. In data set [4], the Antibacterial Activity (MIC's), C came to 0.2 µg/mL. In addition, the Antibacterial Activity (MIC's), A in data set [5] was 0.2 µg/mL. The compound also gave an Antibacterial Activity (MIC's), F in data set [6] of 0.25 µg/mL.
